In patent US8101180B2, “Anti-IGF-IR and/or anti-insulin/IGF-I hybrid receptors antibodies and uses thereof” (Pierre Fabre Medicament, priority 2002, dated 2012):
“Also recorded” adds a separate entry of the source.

What was measured:
A549 tumor = assay: A549 non-small cell lung tumor subcutaneous xenograft; assay type: in vivo, nude mice; conditions: s.c. xenograft; for inhibition of A549 tumor growth in vivo, murine versus humanized antibody: 125 μg/dose twice per week i.p.
Protocol: Navelbine is a chemotherapy compound indicated in non-small cell cancer of the lung and in metastatic cancer of the breast. […] For this study, 5·10^6 A549 cells were grafted subcutaneously on the right flank of the mouse. Five days after the cell graft, the tumors are measurable and the treatments with MAb and/or navelbine are commenced. The MAb dose is always 250 μg/dose/mouse, twice per week, intra-peritoneally. Concerning navelbine, it will be administered at the maximum dose tolerated by the mouse or 10 mg/kg, intraperitoneally. For this treatment three injections will be carried out at intervals of 7 days. During the coadministrations, the two products are mixed before injection.
For this study, nude mice are grafted s.c. with 5·10^6 A549 cells. Five days after the cell graft, the tumors are measured and a homogeneous batch of mice in terms of tumor volume is formed. Starting from this batch, groups of 6 mice are generated at random.
To do this, 5·10^6 A549 cells were implanted subcutaneously in nude mice. Five days after this implantation, the tumors were measured and groups of 6 mice were formed. […] This granule is essential to the establishment of any E2-dependent human tumor in this animal species.
These conjugates are administered according to the same modes as the groups given the chemotherapy compounds alone; • the animals of the control batch are given injections of PBS, administered according to the same frequency.
The weight of the mice and the tumor volume are evaluated twice a week. The tumor volumes are calculated according to the formula: ½ (length·width·height).

SK-ES-1 tumor = assay: SK-ES-1 osteosarcoma xenograft; assay type: in vivo, nude mice; conditions: 250 μg/dose/mouse twice per week i.p.
Protocol: (§1) In these 4 models, the treatment was carried out twice per week i.p. at a rate of 250 μg/dose/mouse.

MCF-7 cells [1] = assay: Cell cycle of MCF-7 cells with IGF1; assay type: cell-based, human; conditions: MCF-7 cells, 24 hours
Protocol: The inhibition of the cell growth observed in vitro on the line MCF-7 should be manifested by an effect on the cell cycle. In order to reply to this question, 4·10^5 cells are inoculated into 6-well plates. […] After incubation for 24 hours, the cells are recovered for the study of the cell cycle.

BxPC3 tumor = assay: BxPC3 pancreatic cancer xenograft; assay type: in vivo, nude mice; conditions: 250 μg/dose/mouse twice per week i.p.
Protocol: as §1

[2] = tested on: A549 cells implanted intrapleurally; assay: Orthotopic (intrapleural) A549 model, survival; conditions: 10^6 A549 cells intrapleural; Example 3b: 500 μg/mouse challenge then 250 μg twice per week
Protocol: In order to evaluate our antibody in a model closer to reality, the A549 cells were implanted in an intrapleural location. […] In the study which was carried out, 10^6 A549 cells were injected intrapleurally into female nude mice. 7 days after implantation, the mice were divided into 2 batches of 22.
In order to evaluate the antitumor activity of an antibody mixture directed respectively against IGF-IR and EGFR, 10^6 A549 cells (non-small cell lung cancer) were implanted in the intrapleural cavity of nude mice.
For the combined therapy, antibodies were mixed prior to the injection.
The T/C % are calculated according the following formula, [MEDIAN OF TREATED MICE/MEDIAN OF CONTROL MICE×100].

MCF-7 cells [3] = assay: IGF1-induced proliferation of MCF-7 cells (3H thymidine incorporation); assay type: cell-based, human; conditions: antibody 10 μg/ml; IGF-I 1 to 50 ng/ml
Protocol: The cell proliferation is evaluated by following the incorporation of ^3H thymidine. The commercial antibody αIR3 is used as a positive control of the experiment.
The cell proliferation is estimated by following on the β counter the incorporation of tritiated thymidine by the cells. The results are expressed as a proliferative index.

MCF-7 cells [4] = assay: Apoptosis of MCF-7 cells (Annexin V-FITC/DAPI flow cytometry); assay type: cell-based, human; conditions: antibody 10 μg/ml + doxorubicin 2 μg/ml, 24 hours
Protocol: As indicated above, IGF-IR is capable of conferring protection against apoptosis when it is overexpressed on the surface of cells. […] In these experiments, the MCF-7 cells are inoculated at 2·10^4/cm^2 in Petri dishes and cultured for 24 h in RPMI without phenol red supplemented with 10% of fetal calf serum (FCS). The cells are then washed twice with PBS and put back into culture in medium with 0% FCS. They are allowed an adaptation time of 10 minutes at 37° C. before the addition of the antibodies at 10 μg/ml. After an extra 10 minutes at 37° C., recombinant IGF-I (Sigma) is added to the culture medium to a final concentration of 50 ng/ml. The cells are left at 37° C. again for one hour in order to allow the attachment of the antibodies and of the IGF-I. Finally, the doxorubicin (Sigma) is added to the culture medium at 2 μg/ml and the cells are incubated for 24 hours at 37° C.
The experiments have likewise been conducted with navelbine at a concentration of 10 μg/ml.
The analysis of the cell viability is carried out by flow cytometric analysis after labeling with the annexin V-FITC (20 minutes, 4° C.) and DAPI (2 μg/ml). The percentage of dead cells considered is the labeled population Annexin+/DAPI+. The antibody 5C2 is used as a control isotype.

Hybrid-R = assay: Immunoprecipitation of Hybrid-R from R+/IR-A and R+/IR-B cell lysates; assay type: binding
Text: The used cells for this study are listed thereafter: • R+: R− fibroblasts stably transfected with the IGF-I receptor (IGF-IR) cDNA • R−/IR-A: R− fibroblasts stably transfected with the insulin receptor isoform A (IR-A) cDNA • R−/IR-B:R− fibroblasts stably transfected with the insulin receptor isoform B (IR-B) cDNA • R+/IR-A: R− fibroblasts stably co-transfected with the IGF-I and the insulin receptor isoform A cDNA and, therefore, expressing hybrid receptors A (Hybrid-RsA) • R+/IR-B: R− fibroblasts stably co-transfected with the IGF-I and the insulin receptor isoform B cDNA and, therefore, expressing hybrid receptors B (Hybrid-RsB)
For the obtention of cellular lysat, cells were solubilized in RIPA buffer and 4 mg protein used for immunoprecipitation.
Following immunoprecipitation, the pellet was resuspended in 2× sample buffer and subjected to SDS-PAGE (7.5% polyacrylamide).
Filters were blotted as follows: Filters containing R+ lysates (and therefore only IGF-IR) with an anti-IGF-IR β-subunit (Santa Cruz). Filters containing lysates from all the remaining cells with an antibody anti-IR β-subunit (Santa Cruz).

MCF-7 cells [5] = assay: IGF2-induced proliferation of MCF-7 cells; assay type: cell-based, human; conditions: IGF2 200 ng/ml; MAb 10 μg/ml
Protocol: As indicated above, IGF-IR is overexpressed by numerous tumors but it has furthermore been described that in a good part of the cancers of the breast and of the colon especially, the proliferation signal is given to this receptor via IGF2 (sometimes written IGF-II or IGFII). […] In order to do this, cells were inoculated into 96-well plates, deprived of fetal calf serum and stimulated by the addition of 200 ng of IGF2 per ml, final concentration, of medium, in the presence and in the absence of the MAb to be tested introduced at a concentration of 10 μg/ml.

A549 cells = assay: ADCC with human NK cells on A549 cells (51Cr); assay type: cell-based; conditions: 4 hours, 10 μg antibody per 5·10^5 cells
Protocol: In order to verify this point, NK (Natural Killer) cells coming from the peripheral blood of human donors are placed in the presence of A549 or MCF-7 cells previously incubated for 4 hours with 10 μg of 7H2HM antibody per 5·10^5 cells and labeled with ^51Cr ([…]).

Sequence of Hybrid-R (P08069 31-736 limits assumed): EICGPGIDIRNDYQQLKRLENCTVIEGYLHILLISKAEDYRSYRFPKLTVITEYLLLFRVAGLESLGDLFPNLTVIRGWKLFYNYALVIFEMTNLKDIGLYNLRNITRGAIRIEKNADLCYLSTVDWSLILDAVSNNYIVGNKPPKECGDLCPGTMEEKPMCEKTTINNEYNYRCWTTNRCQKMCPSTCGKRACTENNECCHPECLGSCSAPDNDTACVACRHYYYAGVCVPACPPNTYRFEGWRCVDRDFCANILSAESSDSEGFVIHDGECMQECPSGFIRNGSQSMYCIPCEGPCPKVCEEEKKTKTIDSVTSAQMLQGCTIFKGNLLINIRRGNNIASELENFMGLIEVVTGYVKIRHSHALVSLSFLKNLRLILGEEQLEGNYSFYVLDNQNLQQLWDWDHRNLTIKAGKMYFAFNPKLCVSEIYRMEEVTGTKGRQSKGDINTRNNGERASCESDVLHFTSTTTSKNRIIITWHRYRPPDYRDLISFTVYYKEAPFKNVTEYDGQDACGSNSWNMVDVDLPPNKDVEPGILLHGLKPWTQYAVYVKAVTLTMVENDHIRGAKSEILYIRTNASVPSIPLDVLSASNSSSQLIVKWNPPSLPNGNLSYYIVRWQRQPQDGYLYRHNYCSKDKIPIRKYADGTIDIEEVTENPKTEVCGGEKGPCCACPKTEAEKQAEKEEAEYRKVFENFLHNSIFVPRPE
Sequence of Hybrid-R (P08069 741-1367 limits assumed): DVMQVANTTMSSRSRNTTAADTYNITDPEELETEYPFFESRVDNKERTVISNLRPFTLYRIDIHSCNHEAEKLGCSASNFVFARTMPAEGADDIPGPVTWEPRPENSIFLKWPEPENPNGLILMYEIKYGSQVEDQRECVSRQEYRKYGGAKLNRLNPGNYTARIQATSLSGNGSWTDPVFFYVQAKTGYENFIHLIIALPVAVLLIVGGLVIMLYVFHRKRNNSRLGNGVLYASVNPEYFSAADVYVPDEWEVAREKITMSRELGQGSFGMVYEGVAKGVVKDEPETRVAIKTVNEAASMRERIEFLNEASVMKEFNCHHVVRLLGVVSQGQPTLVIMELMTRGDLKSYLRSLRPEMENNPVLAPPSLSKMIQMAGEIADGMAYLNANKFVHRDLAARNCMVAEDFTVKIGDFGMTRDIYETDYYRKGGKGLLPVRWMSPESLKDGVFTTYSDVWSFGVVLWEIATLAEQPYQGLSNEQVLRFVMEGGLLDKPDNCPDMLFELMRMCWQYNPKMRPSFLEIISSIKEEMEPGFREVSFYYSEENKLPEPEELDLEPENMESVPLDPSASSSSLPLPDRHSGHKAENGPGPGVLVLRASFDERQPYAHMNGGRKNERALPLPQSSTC

Row | Substance | inhibition of A549 tumor growth in vivo, murine versus humanized antibody (A549 tumor) | inhibition of A549 tumor growth in vivo (A549 tumor; 250 μg/dose/mouse twice per week i.p.) | antitumor activity in SKES-1 osteosarcoma model (SK-ES-1 tumor) | inhibition of IGF1-induced entry into the cell cycle (MCF-7 cells [1]) | antitumor activity in BxPC3 model (BxPC3 tumor) | survival of mice orthotopically implanted with A549 cells [2] | inhibition of IGF1-induced proliferation of MCF-7 cells (MCF-7 cells [3]) | potentiation of doxorubicin-induced cell death (MCF-7 cells [4]) | recognition of Hybrid-R by immunoprecipitation (Hybrid-R) | inhibition of IGF2-induced growth of MCF-7 cells (MCF-7 cells [5]) | ADCC on A549 cells (A549 cells)
1 | 7C10: murine monoclonal anti-IGF-IR IgG1 secreted by the hybridoma deposited at the CNCM under the number I-2717 | significant inhibition of the tumor growth | significant activity; also recorded: as active as the conventional treatment with navelbine; also recorded: significant decrease in the tumor growth | significant activity | significant inhibition of the entry into the cycle | significant activity | significant extension of survival; also recorded: comparable and a significant gain in survival | significantly inhibits the growth | significant increase in cell death | recognizes Hybrid-R | totally inhibits the growth induced by IGF2; also recorded: significantly better than that of 1H7 | 
2 | h7C10: humanized 7C10 anti-IGF-IR antibody, isotype IgG1 (humanized 1 written 7H2HM) | exactly the same intensity as that observed with its murine counterpart |  |  | significant inhibition of the entry into the cycle |  |  | perfectly preserved their properties of inhibiting the IGF1-induced growth | same effect | recognizes Hybrid-R |  | capable of inducing an ADCC
